Source: the NIST ThermoML archive (doi:10.1007/s10765-009-0584-4)
“And” between values parts separate entries of the source, which are not always exact repeats. Equal values may be shown once. ± gives the expanded uncertainty stated by the source.

Details: 101.33 kPa, Liquid; for electrical conductivity: Parallel Plate Conductive Cell; for kinematic viscosity: Capillary tube (Ostwald / Ubbelohde) method

For `CCCCCC[n+]1ccn(C)c1.O=S(=O)([N-]S(=O)(=O)C(F)(F)F)C(F)(F)F`, the electrical conductivity (278.15 K) was 0.0783 S/m, the electrical conductivity (283.15 K) was 0.104 S/m and the electrical conductivity (288.15 K) was 0.136 S/m. For the same molecule, the electrical conductivity (293.15 K) was 0.173 S/m, the kinematic viscosity (298.15 K) was 5.06e-05 ± 5.1e-07 m2/s and the electrical conductivity (298.15 K) was 0.217 S/m and 0.218 S/m. The kinematic viscosity (303.15 K) was 4.04e-05 ± 4.3e-07 m2/s, the electrical conductivity (303.15 K) was 0.268 S/m and the electrical conductivity (308.15 K) was 0.326 S/m. For the same molecule, the electrical conductivity (313.15 K) was 0.391 S/m, the kinematic viscosity (313.16 K) was 2.7e-05 ± 2.9e-07 m2/s and the kinematic viscosity (323.15 K) was 1.9e-05 ± 2e-07 m2/s. The electrical conductivity (323.15 K) was 0.543 S/m, the kinematic viscosity (333.15 K) was 1.39e-05 ± 1.5e-07 m2/s and the electrical conductivity (333.15 K) was 0.726 S/m. For the same molecule, the kinematic viscosity (343.15 K) was 1.06e-05 ± 1.2e-07 m2/s.
